In ChEMBL document CHEMBL5729309, “Substituted pyrimidines, pharmaceutical compositions and therapeutic methods thereof” (2022) one finds IC50 data, which are given here for two compounds.

Usually IC50 stands for the concentration at which inhibition is half-maximal. Read a high IC50 as weaker potency in that assay.

For test [1], the target named is T1, Tyrosine-protein kinase ITK/TSK (Homo sapiens, UniProt Q08881).
T1 sequence (Q08881 whole entry): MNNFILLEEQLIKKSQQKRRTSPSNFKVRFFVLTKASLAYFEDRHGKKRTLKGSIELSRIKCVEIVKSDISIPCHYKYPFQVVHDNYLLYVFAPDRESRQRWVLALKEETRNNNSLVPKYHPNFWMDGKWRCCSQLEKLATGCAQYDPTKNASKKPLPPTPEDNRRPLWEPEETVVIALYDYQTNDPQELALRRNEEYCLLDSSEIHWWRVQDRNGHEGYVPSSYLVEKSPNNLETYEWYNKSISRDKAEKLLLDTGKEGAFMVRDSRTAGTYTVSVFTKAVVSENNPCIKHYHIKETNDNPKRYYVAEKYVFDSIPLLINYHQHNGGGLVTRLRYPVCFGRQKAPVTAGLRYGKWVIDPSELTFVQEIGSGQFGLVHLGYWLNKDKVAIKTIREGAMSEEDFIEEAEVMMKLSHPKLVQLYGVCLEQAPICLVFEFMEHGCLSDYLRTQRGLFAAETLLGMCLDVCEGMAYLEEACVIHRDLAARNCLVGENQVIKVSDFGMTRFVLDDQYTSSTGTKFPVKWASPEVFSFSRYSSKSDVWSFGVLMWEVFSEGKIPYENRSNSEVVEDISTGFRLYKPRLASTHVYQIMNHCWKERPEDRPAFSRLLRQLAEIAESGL

In test [2] the target is T2, Cytoplasmic tyrosine-protein kinase BMX (Homo sapiens, UniProt P51813).
T2 sequence (P51813 whole entry): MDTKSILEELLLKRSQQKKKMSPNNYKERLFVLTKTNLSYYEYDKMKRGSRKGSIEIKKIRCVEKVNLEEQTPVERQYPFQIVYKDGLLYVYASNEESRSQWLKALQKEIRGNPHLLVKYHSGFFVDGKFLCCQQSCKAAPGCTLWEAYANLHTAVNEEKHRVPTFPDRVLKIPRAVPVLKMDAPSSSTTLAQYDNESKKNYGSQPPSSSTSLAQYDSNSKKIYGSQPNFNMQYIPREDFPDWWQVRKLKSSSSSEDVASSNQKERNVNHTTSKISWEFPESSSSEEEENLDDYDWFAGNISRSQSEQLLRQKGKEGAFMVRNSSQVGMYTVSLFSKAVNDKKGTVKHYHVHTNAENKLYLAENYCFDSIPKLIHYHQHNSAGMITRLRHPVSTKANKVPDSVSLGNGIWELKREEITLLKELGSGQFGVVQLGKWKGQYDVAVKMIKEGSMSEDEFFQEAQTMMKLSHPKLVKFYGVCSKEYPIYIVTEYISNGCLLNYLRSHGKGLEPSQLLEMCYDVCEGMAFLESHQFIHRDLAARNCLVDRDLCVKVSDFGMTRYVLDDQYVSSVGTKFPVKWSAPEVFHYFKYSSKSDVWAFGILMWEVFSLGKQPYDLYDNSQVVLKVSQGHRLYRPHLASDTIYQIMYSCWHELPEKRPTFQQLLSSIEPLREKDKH

Test [3] deals with Epidermal growth factor receptor (Homo sapiens, UniProt P00533).
For a further test, the target named is Focal adhesion kinase 1 (Homo sapiens, UniProt Q05397).
Sequence of Focal adhesion kinase 1 (Q05397 whole entry): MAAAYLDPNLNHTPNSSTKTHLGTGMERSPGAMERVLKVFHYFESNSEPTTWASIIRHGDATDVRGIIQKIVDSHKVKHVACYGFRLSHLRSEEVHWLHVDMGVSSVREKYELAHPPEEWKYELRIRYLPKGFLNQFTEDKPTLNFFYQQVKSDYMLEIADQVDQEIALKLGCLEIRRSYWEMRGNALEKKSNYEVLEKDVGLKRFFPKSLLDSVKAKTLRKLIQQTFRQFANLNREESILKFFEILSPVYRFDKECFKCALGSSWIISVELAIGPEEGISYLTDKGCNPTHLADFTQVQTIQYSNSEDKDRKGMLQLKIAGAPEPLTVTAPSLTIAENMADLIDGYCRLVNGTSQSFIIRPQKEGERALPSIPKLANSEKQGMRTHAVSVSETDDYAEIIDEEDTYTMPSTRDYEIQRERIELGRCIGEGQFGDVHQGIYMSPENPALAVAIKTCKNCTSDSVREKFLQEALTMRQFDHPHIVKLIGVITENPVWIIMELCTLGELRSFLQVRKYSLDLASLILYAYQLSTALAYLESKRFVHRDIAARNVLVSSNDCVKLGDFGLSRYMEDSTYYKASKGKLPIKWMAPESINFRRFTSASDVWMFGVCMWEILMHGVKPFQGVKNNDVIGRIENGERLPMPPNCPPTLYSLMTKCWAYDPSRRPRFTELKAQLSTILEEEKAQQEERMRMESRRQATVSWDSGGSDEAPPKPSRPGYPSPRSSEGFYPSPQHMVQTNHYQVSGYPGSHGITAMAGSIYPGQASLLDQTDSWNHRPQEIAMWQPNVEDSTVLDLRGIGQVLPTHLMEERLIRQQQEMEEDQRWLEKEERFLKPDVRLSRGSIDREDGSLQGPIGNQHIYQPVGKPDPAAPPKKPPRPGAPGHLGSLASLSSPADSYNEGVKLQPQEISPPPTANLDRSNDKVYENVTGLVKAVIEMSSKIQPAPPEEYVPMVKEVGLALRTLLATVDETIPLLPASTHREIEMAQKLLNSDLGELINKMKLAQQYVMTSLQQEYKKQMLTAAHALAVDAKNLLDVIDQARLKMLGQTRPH

Sequence of Epidermal growth factor receptor (P00533 whole entry): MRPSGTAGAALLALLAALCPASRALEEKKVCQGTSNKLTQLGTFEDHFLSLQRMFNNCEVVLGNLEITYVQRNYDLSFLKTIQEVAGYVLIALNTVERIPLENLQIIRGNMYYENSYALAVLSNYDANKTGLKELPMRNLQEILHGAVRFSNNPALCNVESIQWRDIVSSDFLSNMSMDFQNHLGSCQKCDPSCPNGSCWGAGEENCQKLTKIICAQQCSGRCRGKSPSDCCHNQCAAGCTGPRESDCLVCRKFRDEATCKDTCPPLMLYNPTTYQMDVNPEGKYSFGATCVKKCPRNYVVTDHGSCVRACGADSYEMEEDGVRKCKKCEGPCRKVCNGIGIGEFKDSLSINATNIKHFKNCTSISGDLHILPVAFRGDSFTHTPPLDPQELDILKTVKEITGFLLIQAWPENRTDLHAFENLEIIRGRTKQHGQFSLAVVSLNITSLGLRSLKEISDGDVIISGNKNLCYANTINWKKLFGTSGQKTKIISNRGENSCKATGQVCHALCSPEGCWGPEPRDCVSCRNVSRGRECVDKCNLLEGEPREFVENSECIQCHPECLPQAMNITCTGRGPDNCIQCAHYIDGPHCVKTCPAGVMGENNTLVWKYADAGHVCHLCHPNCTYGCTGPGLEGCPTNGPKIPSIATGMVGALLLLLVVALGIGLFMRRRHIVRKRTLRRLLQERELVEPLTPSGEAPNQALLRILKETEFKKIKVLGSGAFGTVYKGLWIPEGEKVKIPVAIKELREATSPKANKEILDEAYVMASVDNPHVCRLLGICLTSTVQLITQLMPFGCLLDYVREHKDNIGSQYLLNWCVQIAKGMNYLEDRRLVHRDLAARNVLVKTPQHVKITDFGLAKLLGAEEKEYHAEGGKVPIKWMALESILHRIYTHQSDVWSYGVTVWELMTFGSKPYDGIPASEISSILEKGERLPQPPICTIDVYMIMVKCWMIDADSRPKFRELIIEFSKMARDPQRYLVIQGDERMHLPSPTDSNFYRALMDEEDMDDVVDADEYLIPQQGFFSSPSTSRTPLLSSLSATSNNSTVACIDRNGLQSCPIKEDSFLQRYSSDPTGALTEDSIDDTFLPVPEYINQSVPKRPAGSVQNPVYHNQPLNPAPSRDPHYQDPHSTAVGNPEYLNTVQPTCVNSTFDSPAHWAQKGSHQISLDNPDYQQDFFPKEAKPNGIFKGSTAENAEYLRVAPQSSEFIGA

As to `C=CC(=O)Nc1ccccc1Nc1nc(Nc2ccc(OCCCOC3(CC)OCC(C)(C)CO3)cc2)ncc1F`, the IC50 (in test [1]; in test [2]; in test [3]; against Focal adhesion kinase 1) was greater than 100 nM each time.
Take `C=CC(=O)N1CCC[C@@H](Nc2nc(Nc3ccc(OCCCOC4(CC)OCC(C)(C)CO4)cc3)ncc2F)C1`: the IC50 is greater than 100 nM in test [1], less than 100 nM in test [2], greater than 100 nM in test [3] and greater than 100 nM against Focal adhesion kinase 1.
